What was measured:
Assay type in all cases: cell-based
Nav 1.7 [1] = biological target: T1, Nav 1.7 (Homo sapiens (Human), UniProt Q15858); experiment: Nav 1.7 in vitro assay, IonWorks Quattro (IWQ) population patch-clamp; conditions: HEK 293 cells stably transfected with Nav 1.7; 26th pulse to -20 mV
Nav 1.7 [2] = biological target: T1, Nav 1.7; experiment: Nav 1.7 in vitro PX assay, PatchXpress whole cell voltage clamp; conditions: HEK 293 cells stably transfected with human Nav1.7; for IC50: partially inactivated state (20 to 50% inactivation); for inhibition at 4.9 µM: HEK293, values marked *, read-out: Nav 1.7 PX percent inhibition at 4.9 μM
Summary of the method: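 HEK293 cells stably expressing human Nav1.7, whole-cell voltage clamp at a holding potential giving 20–50% inactivation; currents elicited by 20 msec pulses to −10 mV at 0.1 Hz.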

Nav 1.5 = Nav 1.5 (Homo sapiens (Human), UniProt Q14524); experiment: Nav 1.5 in vitro assay, IonWorks Quattro (IWQ) population patch-clamp; conditions: HEK 293 cells stably transfected with Nav 1.5; 26th pulse to -20 mV
Chain of Nav 1.5 (Q14524 whole entry): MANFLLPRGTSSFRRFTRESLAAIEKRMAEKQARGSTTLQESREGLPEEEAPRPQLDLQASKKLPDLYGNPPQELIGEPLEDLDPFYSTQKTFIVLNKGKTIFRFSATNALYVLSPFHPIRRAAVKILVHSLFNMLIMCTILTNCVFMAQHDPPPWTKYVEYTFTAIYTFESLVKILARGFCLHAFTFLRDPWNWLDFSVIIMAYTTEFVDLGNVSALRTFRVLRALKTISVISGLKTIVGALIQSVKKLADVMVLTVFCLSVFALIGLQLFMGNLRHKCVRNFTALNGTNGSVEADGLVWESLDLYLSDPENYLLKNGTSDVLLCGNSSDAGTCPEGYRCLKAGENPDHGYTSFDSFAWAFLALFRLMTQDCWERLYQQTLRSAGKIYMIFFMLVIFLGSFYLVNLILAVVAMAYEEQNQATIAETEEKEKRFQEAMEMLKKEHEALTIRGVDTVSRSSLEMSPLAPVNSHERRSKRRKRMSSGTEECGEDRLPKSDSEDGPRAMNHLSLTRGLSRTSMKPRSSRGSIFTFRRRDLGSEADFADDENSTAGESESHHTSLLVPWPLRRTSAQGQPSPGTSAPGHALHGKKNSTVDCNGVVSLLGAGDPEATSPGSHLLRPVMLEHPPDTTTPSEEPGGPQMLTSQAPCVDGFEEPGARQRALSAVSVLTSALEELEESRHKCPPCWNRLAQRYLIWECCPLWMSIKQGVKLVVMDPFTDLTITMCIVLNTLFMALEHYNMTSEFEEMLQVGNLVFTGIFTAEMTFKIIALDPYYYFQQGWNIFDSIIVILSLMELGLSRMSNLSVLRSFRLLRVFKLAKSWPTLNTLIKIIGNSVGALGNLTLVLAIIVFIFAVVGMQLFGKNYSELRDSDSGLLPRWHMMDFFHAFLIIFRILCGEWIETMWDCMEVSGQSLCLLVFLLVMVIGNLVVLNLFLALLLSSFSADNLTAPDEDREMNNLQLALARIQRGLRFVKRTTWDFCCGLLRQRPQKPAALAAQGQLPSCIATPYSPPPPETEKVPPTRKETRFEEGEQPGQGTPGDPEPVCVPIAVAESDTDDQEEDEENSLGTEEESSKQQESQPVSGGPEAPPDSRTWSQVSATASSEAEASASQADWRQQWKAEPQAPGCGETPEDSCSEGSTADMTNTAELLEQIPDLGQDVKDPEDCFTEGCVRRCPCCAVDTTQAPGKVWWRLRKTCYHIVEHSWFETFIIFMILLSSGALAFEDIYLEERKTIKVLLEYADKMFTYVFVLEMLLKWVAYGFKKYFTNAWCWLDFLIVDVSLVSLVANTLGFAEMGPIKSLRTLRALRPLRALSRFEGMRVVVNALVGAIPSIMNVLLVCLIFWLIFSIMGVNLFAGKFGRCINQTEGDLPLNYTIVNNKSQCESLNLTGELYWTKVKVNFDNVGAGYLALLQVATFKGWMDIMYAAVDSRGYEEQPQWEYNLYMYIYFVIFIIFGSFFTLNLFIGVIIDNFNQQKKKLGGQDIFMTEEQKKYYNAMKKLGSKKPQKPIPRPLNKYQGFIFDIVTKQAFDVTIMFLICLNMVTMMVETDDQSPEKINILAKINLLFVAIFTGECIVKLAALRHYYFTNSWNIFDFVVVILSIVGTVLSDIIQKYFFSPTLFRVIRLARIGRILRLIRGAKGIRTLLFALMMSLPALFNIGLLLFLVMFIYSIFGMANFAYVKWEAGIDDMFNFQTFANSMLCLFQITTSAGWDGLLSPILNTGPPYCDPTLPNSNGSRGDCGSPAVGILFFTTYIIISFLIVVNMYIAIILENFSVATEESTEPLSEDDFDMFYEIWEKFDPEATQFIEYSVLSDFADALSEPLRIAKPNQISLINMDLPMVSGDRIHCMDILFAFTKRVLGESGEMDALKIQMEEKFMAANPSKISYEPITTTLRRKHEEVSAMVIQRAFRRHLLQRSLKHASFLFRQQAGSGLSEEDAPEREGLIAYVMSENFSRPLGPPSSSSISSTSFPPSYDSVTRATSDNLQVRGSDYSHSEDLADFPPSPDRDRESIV

T1 sequence (Q15858 whole entry): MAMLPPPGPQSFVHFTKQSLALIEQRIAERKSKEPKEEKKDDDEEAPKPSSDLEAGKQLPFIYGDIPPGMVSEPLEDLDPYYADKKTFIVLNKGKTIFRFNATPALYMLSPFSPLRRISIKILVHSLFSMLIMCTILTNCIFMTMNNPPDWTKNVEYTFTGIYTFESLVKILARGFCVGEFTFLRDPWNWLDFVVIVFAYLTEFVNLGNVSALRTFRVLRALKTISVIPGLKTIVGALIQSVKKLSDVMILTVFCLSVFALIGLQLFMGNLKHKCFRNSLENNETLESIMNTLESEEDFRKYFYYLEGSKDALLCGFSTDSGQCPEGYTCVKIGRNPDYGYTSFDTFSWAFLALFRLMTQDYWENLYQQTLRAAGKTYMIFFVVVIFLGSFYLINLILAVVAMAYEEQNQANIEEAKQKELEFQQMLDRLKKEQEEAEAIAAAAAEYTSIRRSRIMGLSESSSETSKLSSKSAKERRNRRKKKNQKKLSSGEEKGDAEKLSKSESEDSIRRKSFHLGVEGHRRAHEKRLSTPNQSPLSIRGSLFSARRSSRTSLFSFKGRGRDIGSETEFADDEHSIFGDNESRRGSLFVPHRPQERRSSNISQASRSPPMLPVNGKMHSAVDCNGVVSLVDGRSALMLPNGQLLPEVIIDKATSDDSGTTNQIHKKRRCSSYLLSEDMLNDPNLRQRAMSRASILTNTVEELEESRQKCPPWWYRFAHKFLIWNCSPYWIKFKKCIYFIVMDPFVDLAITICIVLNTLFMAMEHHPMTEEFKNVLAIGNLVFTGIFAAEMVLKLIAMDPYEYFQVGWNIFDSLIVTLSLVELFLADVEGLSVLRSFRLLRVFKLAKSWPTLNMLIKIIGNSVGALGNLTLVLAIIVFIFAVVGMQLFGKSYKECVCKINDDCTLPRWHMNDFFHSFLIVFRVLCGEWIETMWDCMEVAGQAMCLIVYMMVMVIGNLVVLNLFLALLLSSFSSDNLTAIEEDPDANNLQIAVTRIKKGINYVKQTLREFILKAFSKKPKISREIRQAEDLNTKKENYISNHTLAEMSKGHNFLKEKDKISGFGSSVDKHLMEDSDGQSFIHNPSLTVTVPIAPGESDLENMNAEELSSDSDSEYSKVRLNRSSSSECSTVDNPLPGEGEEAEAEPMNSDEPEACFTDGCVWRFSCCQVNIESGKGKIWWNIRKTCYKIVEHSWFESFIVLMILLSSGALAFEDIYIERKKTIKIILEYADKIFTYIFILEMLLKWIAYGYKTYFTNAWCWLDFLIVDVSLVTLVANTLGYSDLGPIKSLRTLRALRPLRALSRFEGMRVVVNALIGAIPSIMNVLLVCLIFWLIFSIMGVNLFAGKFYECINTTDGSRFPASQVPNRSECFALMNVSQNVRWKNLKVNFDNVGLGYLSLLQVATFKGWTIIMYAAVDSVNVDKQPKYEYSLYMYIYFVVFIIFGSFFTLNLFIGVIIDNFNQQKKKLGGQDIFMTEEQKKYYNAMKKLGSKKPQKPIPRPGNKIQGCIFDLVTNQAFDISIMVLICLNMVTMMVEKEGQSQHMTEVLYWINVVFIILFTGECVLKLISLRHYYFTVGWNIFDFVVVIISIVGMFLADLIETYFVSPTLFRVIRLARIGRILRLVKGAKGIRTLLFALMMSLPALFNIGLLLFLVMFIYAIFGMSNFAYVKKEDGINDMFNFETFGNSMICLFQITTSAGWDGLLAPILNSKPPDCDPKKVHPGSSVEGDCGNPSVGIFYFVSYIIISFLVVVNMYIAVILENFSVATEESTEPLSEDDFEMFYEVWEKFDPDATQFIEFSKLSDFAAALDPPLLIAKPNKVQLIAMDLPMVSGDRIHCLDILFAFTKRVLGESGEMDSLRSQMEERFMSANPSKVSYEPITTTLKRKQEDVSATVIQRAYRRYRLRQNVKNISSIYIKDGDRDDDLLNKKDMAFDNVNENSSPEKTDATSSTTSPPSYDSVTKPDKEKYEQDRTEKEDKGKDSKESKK

SMILES	IC50 (Nav 1.7 [1])	IC50 (Nav 1.7 [2])	inhibition at 4.9 µM (Nav 1.7 [2])	IC50 (Nav 1.5)
COc1cnc(N2CCOc3cc(S(=O)(=O)Nc4nccs4)ccc32)c(OC)n1 [Example 143, 4-(3,5-Dimethoxypyrazin-2-yl)-N-(thiazol-2-yl)-3,4-dihydro-2H-benzo[b][1,4]oxazine-7-sulfonamide]	1010 nM	9070 nM		> 10000 nM
N#Cc1cc(C(F)(F)F)ccc1N1CCOc2cc(S(=O)(=O)Nc3cscn3)ccc21 [Example 152, 4-(2-cyano-4-(trifluoromethyl)phenyl)-N-(thiazol-4-yl)-3,4-dihydro-2H-benzo[b][1,4]oxazine-7-sulfonamide]	1630 nM	2780 nM		9420 nM
O=S(=O)(Nc1nccs1)c1ccc2c(c1)OCCN2Cc1c[nH]c2cccnc12 [Example 222, 4-((1H-Pyrrolo[3,2-B]Pyridin-3-Yl)Methyl)-N-(Thiazol-2-Yl)-3,4-Dihydro-2H-Benzo[B][1,4]Oxazine-7-Sulfonamide]	3430 nM		33.8%	> 10000 nM
O=S(=O)(Nc1nccs1)c1ccc2c(c1)OCCN2c1ncc(F)cc1F [Example 136, 4-(3,5-Difluoropyridin-2-yl)-N-(thiazol-2-yl)-3,4-dihydro-2H-benzo[b][1,4]oxazine-7-sulfonamide]	2980 nM		27.4%	> 10000 nM
Cc1cc(N2CCOc3cc(S(=O)(=O)Nc4nccs4)ccc32)c(C)cn1 [Example 134, 4-(2,5-Dimethylpyridin-4-yl)-N-(thiazol-2-yl)-3,4-dihydro-2H-benzo[b][1,4]oxazine-7-sulfonamide]	1340 nM	17100 nM		> 10000 nM
CCC1CN(c2ccc(C(F)(F)F)cc2C#N)c2ccc(S(=O)(=O)Nc3nccs3)cc2O1 (racemic) [Example 100, 4-(2-Cyano-4-(Trifluoromethyl)Phenyl)-2-Ethyl-N-(Thiazol-2-Yl)-3,4-Dihydro-2H-Benzo[B][1,4]Oxazine-7-Sulfonamide]	679 nM	5790 nM		> 10000 nM
O=S(=O)(Nc1nccs1)c1ccc2c(c1)OCCN2c1ccc(Cl)c(Cl)c1 [Example 74, 4-(3,4-Dichlorophenyl)-N-(Thiazol-2-Yl)-3,4-Dihydro-2H-Benzo[B][1,4]Oxazine-7-Sulfonamide 2,2,2-Trifluoroacetate]	5240 nM	4070 nM		6080 nM
CCOc1ccc(N2CCOc3cc(S(=O)(=O)Nc4nccs4)ccc32)cn1 [Example 138, 4-(6-Ethoxypyridin-3-yl)-N-(thiazol-2-yl)-3,4-dihydro-2H-benzo[b][1,4]oxazine-7-sulfonamide]	860 nM	11500 nM		3830 nM
O=S(=O)(Nc1ccccn1)c1ccc2c(c1)OCCN2c1ccc(C(F)(F)F)cc1Br [Example 60, 4-(2-Bromo-4-(Trifluoromethyl)Phenyl)-N-(Pyridin-2-Yl)-3,4-Dihydro-2H-Benzo[B][1,4]Oxazine-7-Sulfonamide]	1470 nM		24.4%	> 10000 nM
O=S(=O)(Nc1nccs1)c1ccc2c(c1)OCCN2c1ccc(OC(F)(F)C(F)F)cc1 [Example 123, 4-(4-(1,1,2,2-Tetrafluoroethoxy)phenyl)-N-(thiazol-2-yl)-3,4-dihydro-2H-benzo[b][1,4]oxazine-7-sulfonamide]	1070 nM	4720 nM		5810 nM
Cc1cc(F)cnc1N1CCOc2cc(S(=O)(=O)Nc3nccs3)ccc21 [Example 110, 4-(5-Fluoro-3-methylpyridin-2-yl)-N-(thiazol-2-yl)-3,4-dihydro-2H-benzo[b][1,4]oxazine-7-sulfonamide]	1700 nM		39.2%	> 10000 nM
O=S(=O)(Nc1nccs1)c1ccc2c(c1)OCCN2c1ccc(C(F)(F)F)cc1C[C@@H](O)CO (single isomer, unassigned) [Example 209]	12.5 nM	165 nM		497 nM
Cc1ccc(C#N)c(N2CCOc3cc(S(=O)(=O)Nc4nccs4)ccc32)n1 [Example 135, 4-(3-Cyano-6-methylpyridin-2-yl)-N-(thiazol-2-yl)-3,4-dihydro-2H-benzo[b][1,4]oxazine-7-sulfonamide]	2680 nM		22.6%	> 10000 nM
O=S(=O)(Nc1nccs1)c1ccc2c(c1)OCCN2c1cncc(Cl)c1 [Example 130, 4-(5-Chloropyridin-3-yl)-N-(thiazol-2-yl)-3,4-dihydro-2H-benzo[b][1,4]oxazine-7-sulfonamide]	635 nM	5290 nM		6200 nM

The next lines start with results.

IC50 (Nav 1.7 [1])	IC50 (Nav 1.7 [2])	inhibition at 4.9 µM (Nav 1.7 [2])	SMILES	IC50 (Nav 1.5)
107 nM	1990 nM		O=S(=O)(Nc1nccs1)c1ccc2c(c1)OCCN2c1ccccc1-c1ccncc1 [Example 147, 4-(2-(Pyridin-4-yl)phenyl)-N-(thiazol-2-yl)-3,4-dihydro-2H-benzo[b][1,4]oxazine-7-sulfonamide]	> 10000 nM
26 nM	381 nM		O=S(=O)(Nc1cccnn1)c1ccc2c(c1)OCCN2c1ccc(C(F)(F)F)cc1C1=CCNCC1 [Example 87, N-(Pyridazin-3-Yl)-4-(2-(1,2,3,6-Tetrahydropyridin-4-Yl)-4-(Trifluoromethyl)Phenyl)-3,4-Dihydro-2H-Benzo[B][1,4]Oxazine-7-Sulfonamide]	> 10000 nM
42.5 nM	288 nM		COc1cc(C#N)ccc1N1CC(C)Oc2cc(S(=O)(=O)Nc3nccs3)ccc21 (racemic) [Example 106, 4-(4-cyano-2-methoxyphenyl)-2-methyl-N-(thiazol-2-yl)-3,4-dihydro-2H-benzo[b][1,4]oxazine-7-sulfonamide]	> 10000 nM
143 nM	773 nM		COc1cc(-c2cccc(F)c2)ccc1N1CCOc2cc(S(=O)(=O)Nc3nccs3)ccc21 [Example 201, 4-(3′-Fluoro-3-Methoxy-[1,1′-Biphenyl]-4-Yl)-N-(Thiazol-2-Yl)-3,4-Dihydro-2H-Benzo[B][1,4]Oxazine-7-Sulfonamide]	4830 nM
15 nM	193 nM		N#Cc1cc(C(F)(F)F)ccc1N1CCOc2cc(S(=O)(=O)Nc3nccs3)ccc21 [Example 49, 4-(2-Cyano-4-(Trifluoromethyl)Phenyl)-N-(Thiazol-2-Yl)-3,4-Dihydro-2H-Benzo[B][1,4]Oxazine-7-Sulfonamide]	1150 nM
475 nM	1320 nM		O=S(=O)(Nc1nccs1)c1ccc2c(c1)OCCN2c1ccc2c(c1)OC(F)(F)O2 [Example 127, 4-(2,2-Difluorobenzo[d][1,3]dioxol-5-yl)-N-(thiazol-2-yl)-3,4-dihydro-2H-benzo[b][1,4]oxazine-7-sulfonamide]	> 10000 nM
53.5 nM	894 nM		COc1cc(Cl)ccc1N1C[C@@H](C)Oc2cc(S(=O)(=O)Nc3nccs3)ccc21 (single isomer, unassigned) [Example 105]	> 10000 nM
68.5 nM	800 nM		COc1nc(C(F)(F)F)ccc1N1CCOc2cc(S(=O)(=O)Nc3nccs3)ccc21 [Example 214, 4-(2-Methoxy-6-(Trifluoromethyl)Pyridin-3-Yl)-N-(Thiazol-2-Yl)-3,4-Dihydro-2H-Benzo[B][1,4]Oxazine-7-Sulfonamide]	> 10000 nM
233 nM	1100 nM		Cc1cc(Cl)ccc1N1CCOc2cc(S(=O)(=O)Nc3nccs3)ccc21 [Example 195, 4-(4-Chloro-2-Methylphenyl)-N-(Thiazol-2-Yl)-3,4-Dihydro-2H-Benzo[B][1,4]Oxazine-7-Sulfonamide]	> 10000 nM
22.5 nM	203 nM		O=S(=O)(Nc1nccs1)c1ccc2c(c1)OCCN2c1ccc(C(F)(F)F)cc1-c1ccncc1 [Example 53, 4-(2-(Pyridin-4-Yl)-4-(Trifluoromethyl)Phenyl)-N-(Thiazol-2-Yl)-3,4-Dihydro-2H-Benzo[B][1,4]Oxazine-7-Sulfonamide 2,2,2-Trifluoroacetate]	554 nM
627 nM	339 nM		N#Cc1cc(-c2ccccc2F)ccc1N1CCOc2cc(S(=O)(=O)Nc3nccs3)ccc21 [Example 198, 4-(3-cyano-2′-fluoro-[1,1′-biphenyl]-4-yl)-N-(thiazol-2-yl)-3,4-dihydro-2H-benzo[b][1,4]oxazine-7-sulfonamide]	1880 nM
69.5 nM	415 nM		COc1ccc(OC)c(N2CCOc3cc(S(=O)(=O)Nc4nccs4)ccc32)c1 [Example 139, 4-(2,5-Dimethoxyphenyl)-N-(thiazol-2-yl)-3,4-dihydro-2H-benzo[b][1,4]oxazine-7-sulfonamide]	7040 nM
13.5 nM	158 nM		COc1ccc(F)cc1N1CCOc2cc(S(=O)(=O)Nc3nccs3)ccc21 [Example 151, 4-(5-Fluoro-2-methoxyphenyl)-N-(thiazol-2-yl)-3,4-dihydro-2H-benzo[b][1,4]oxazine-7-sulfonamide]	> 10000 nM
87.5 nM	469 nM		CCc1ccc(N2CCOc3cc(S(=O)(=O)Nc4nccs4)ccc32)c(C#N)c1 [Example 203, 4-(2-Cyano-4-Ethylphenyl)-N-(Thiazol-2-Yl)-3,4-Dihydro-2H-Benzo[B][1,4]Oxazine-7-Sulfonamide]	1090 nM
142 nM	756 nM		O=S(=O)(Nc1ncns1)c1ccc2c(c1)OCCN2c1ccccc1 [Example 30, 4-Phenyl-N-(1,2,4-Thiadiazol-5-Yl)-3,4-Dihydro-2H-Benzo[B][1,4]Oxazine-7-Sulfonamide]	> 10000 nM

— US9346798B2, “Dihydrobenzoxazine and tetrahydroquinoxaline sodium channel inhibitors” (AMGEN INC., priority 2012, dated 2016)
